Assay [1] has as its system Staphylococcus aureus. The experiment in a line: Antibacterial activity against Staphylococcus aureus EMRSA-15 at 128 ug/ml after 24 hrs. Format: functional, organism-based.
Assay [2] relates to Staphylococcus aureus. The experiment in a line: Antibacterial activity against Staphylococcus aureus 1199B overexpressing NorA at 128 ug/ml after 24 hrs. Format: functional, organism-based.
Assay [3] has as its system Staphylococcus aureus. The experiment in a line: Antibacterial activity against Staphylococcus aureus ATCC 25923 at 128 ug/ml after 24 hrs. Format: functional, organism-based.
Assay [4] concerns Staphylococcus aureus. The experiment in a line: Antibacterial activity against Staphylococcus aureus RN4220 overexpressing MsrA at 128 ug/ml after 24 hrs. Format: functional, organism-based.
The test system of assay [5] is Mycolicibacterium fortuitum. Kind of assay: Antibacterial activity against Mycobacterium fortuitum after 72 hrs. Format: functional.
The subject of the next assay is Mycolicibacterium phlei. The experiment in a line: Antibacterial activity against Mycobacterium phlei after 72 hrs. The format is functional.
The subject of assay [6] is Staphylococcus aureus. The experiment in a line: Antibacterial activity against Staphylococcus aureus XU-212 overexpressing TetK, mecA at 128 ug/ml after 24 hrs. The format is functional, organism-based.
Assay [7] relates to Mycolicibacterium smegmatis. Kind of assay: Antibacterial activity against Mycobacterium smegmatis after 72 hrs. Format: functional.
Assay [8] concerns Staphylococcus aureus. Kind of assay: Antibacterial activity against Staphylococcus aureus RN4220 overexpressing MsrA after 24 hrs. The format is functional. The settings on record: RN4220, 24 h.
The test system of assay [9] is Staphylococcus aureus. Kind of assay: Antibacterial activity against Staphylococcus aureus 1199B overexpressing NorA after 24 hrs. The format is functional.
The test system of assay [10] is Staphylococcus aureus. The experiment in a line: Antibacterial activity against Staphylococcus aureus XU-212 overexpressing TetK, mecA after 24 hrs. Format: functional. The settings on record: XU-212, 24 h.
The subject of assay [11] is Staphylococcus aureus. The experiment in a line: Antibacterial activity against Staphylococcus aureus EMRSA-15 after 24 hrs. The format is functional. The settings on record: EMRSA-15, 24 h.
Assay [12] has as its system Staphylococcus aureus. The experiment in a line: Antibacterial activity against Staphylococcus aureus ATCC 25923 after 24 hrs. The format is functional. The settings on record: ATCC 25923, 24 h.

Converted amounts (≈) assume the structure as drawn. The source made the active and inactive calls. The calls are words filed in the database; no cut-off is given here.

Broadly, the MIC is the lowest concentration found to suppress growth. Take `C=C[C@@]1(C)C[C@H](O)[C@@H]2[C@@]3(C)[C@H](O)CCC(C)(C)[C@@H]3CC[C@@]2(C)O1`: the MIC result with Staphylococcus aureus [1], in the assay on Staphylococcus aureus [2], with Staphylococcus aureus [3], in the assay on Staphylococcus aureus [4] and in the assay on Staphylococcus aureus [6] was “inactive” in each case. Moreover, the MIC (in assay [5]; against Mycolicibacterium phlei; in [7]) was 128 µg/mL (≈ 397 µM) in each case.

Turning to `CC[C@H]1OC(=O)[C@H](C)[C@@H](O[C@H]2C[C@@](C)(OC)[C@@H](O)[C@H](C)O2)[C@H](C)[C@@H](O[C@@H]2O[C@H](C)C[C@H](N(C)C)[C@H]2O)[C@](C)(O)C[C@@H](C)C(=O)[C@H](C)[C@@H](O)[C@]1(C)O` [ERYTHROMYCIN], 128 µg/mL (≈ 174 µM) was the least that counted as inhibitory in the assay on Staphylococcus aureus [8] (MIC).

Take `CC1(C)CCC[C@]2(C)[C@H]3CC[C@](C)(C4CO4)C=C3[C@H](O)C[C@@H]12` (relative stereo): the MIC was determined as 32 µg/mL (≈ 105 µM) against Staphylococcus aureus [9]; 32 µg/mL (≈ 105 µM) in the assay with Staphylococcus aureus [10]; 32 µg/mL (≈ 105 µM) against Staphylococcus aureus [11]; 16 µg/mL (≈ 52.5 µM) in assay [5]; 32 µg/mL (≈ 105 µM) in the assay with Staphylococcus aureus [8]; 32 µg/mL (≈ 105 µM) in the assay on Staphylococcus aureus [12]. Also, the MIC came to 8 µg/mL (≈ 26.3 µM) in the assay on Mycolicibacterium phlei and 16 µg/mL (≈ 52.5 µM) in assay [7].

For `CCn1cc(C(=O)O)c(=O)c2cc(F)c(N3CCNCC3)cc21` [NORFLOXACIN], the MIC turned out to be 32 µg/mL (≈ 100 µM) with Staphylococcus aureus [9], 2 µg/mL (≈ 6.26 µM) in the assay on Staphylococcus aureus [11] and 0.5 µg/mL (≈ 1.57 µM) against Staphylococcus aureus [12].

`CC[C@@H](CO)NCCN[C@@H](CC)CO` [ETHAMBUTOL]: the MIC in assay [5] came to 4 µg/mL (≈ 19.6 µM); against Mycolicibacterium phlei, 2 µg/mL (≈ 9.79 µM); in assay [7], 0.5 µg/mL (≈ 2.45 µM).

`CN(C)[C@@H]1C(O)=C(C(N)=O)C(=O)[C@@]2(O)C(O)=C3C(=O)c4c(O)cccc4[C@@](C)(O)[C@H]3C[C@@H]12` [TETRACYCLINE] returned a minimum inhibitory concentration (MIC) with Staphylococcus aureus [10] of 128 µg/mL (≈ 288 µM).

`CC1(C)CCC[C@]2(C)[C@H]3CC[C@](C)(C4CO4)C=C3C(=O)C[C@@H]12` (relative stereo): the MIC entry in the assay on Staphylococcus aureus [1], with Staphylococcus aureus [2], with Staphylococcus aureus [3], with Staphylococcus aureus [4] and in the assay with Staphylococcus aureus [6] was “inactive” in each case. In addition, the minimum inhibitory concentration (MIC) came out at 128 µg/mL (≈ 423 µM) in assay [5], 64 µg/mL (≈ 212 µM) in the assay on Mycolicibacterium phlei and 128 µg/mL (≈ 423 µM) in [7].

The values are drawn from ChEMBL document CHEMBL1153024, “Antibacterial diterpenes from Plectranthus ernstii” (2009).
